Laboratory results: patent US20090239757A1, “Control Sequences Responding to AMP and Uses Thereof” (priority 2004, published 2009)
Residues, ends and D or L forms follow the SMILES beside them.

System: E. coli TOP10
Assay: microarray transcription profile of E. coli TOP10 expressing Novispirin G10 (pDRS5-novispirin, arabinose induced) relative to control strain pBAD gIII A
Assay type: cell-based, Escherichia coli
Procedure: In order to obtain a transcriptional profile of E. coli expressing Novispirin G10, 2×10 mL sterile LB media (10 g/L Bactotryptone, 5 g/L Yeast extract, and 10 g/L NaCl) containing 100 mg/L ampicillin was inoculated with E. coli TOP10 harbouring pDRS5-novispirin and pBAD gIII A, respectively. These cultures were grown overnight at 37° C. at 180 rpm. The overnight cultures were diluted 1/100 into fresh sterile RM media (2% Casamino Acids, 0.2% glycerol, 1 mM MgCl2, 0.1 mM thiamine, 6 g/L Na2HPO4, 3 g/L KH2PO4.2H2O, 0.5 g/L NaCl, 0.1 g/L NH4Cl at pH 7.4) supplemented with 100 mg/L ampicillin and 0.1% arabinose. 100 mL of each culture was grown at 37° C., 240 rpm for 4.5 hours before being harvested by poured into centrifugation tubes containing 10 mL pre-frozen milliQ water and immediate centrifugation at 4200 g for 15 minutes at 4° C. Immediately hereafter, the supernatant was decanted and the cell […] was frozen at −20° C. for storage until RNA preparation was initiated.
Total RNA was isolated from the two E. coli (expressing either Novispirin G10 or a control peptide) cultures by use of the High Pure RNA Isolation kit (Roche, cat #1 828 665) according to the manufacturers instructions. Residual DNA was removed on-column with RNase-free DNase. Labelled samples were prepared from 30 μg of total bacterial RNA. Fluorescent first strand cDNA was prepared by random primed reverse transcription (Superscript II; Life Technologies) by use of random hexamers for cDNA synthesis. 2 μl (20 μg) of random primer was mixed with 15 μl (30 μg) of total RNA, incubated for 5 min at 70° C., and cooled on ice. To each sample was added 5× first strand buffer (6 μl), 0.1 M DTT (3 μl), dNTP mix (5 mM dATP, dGTP and dTTP and 2 mM dCTP) (1 μl), RNaseOut (1 μl), Superscript II reverse transcriptase (2 μl) and Cy-dCTP (3 μl). Reverse transcription was carried out at 42° C. for 1 hr. RNA was removed by addition of 10 μl NaOH (1 M) and incubation at 65° C. for 10 min. The samples were neutralised by addition of 10 μl HCl (1 M). Cy3 and Cy5 cDNA samples were mixed and immediately purified with a GFX PCR DNA and Gel Band Purification Kit (Amersham Biosciences).
Slides were pre-hybridised at 42° C. for 45 min in a solution containing 4×SSC+0.5% SDS+1% BSA and dried by centrifugation. Hybridizations were in a volume of 25 μl under a supported cover slip at 42° C. for 16-18 h at high humidity. The hybridisation mixture was labelled cDNA in a formamide-based hybridisation buffer (MWG—supplied with the pan-arrays). Cover slip and supports were gently removed (2×SSC in a wash tray) and arrays were washed by immersion into 2×SSC+0.1% SDS for 5 min, 1×SSC+0.1% SDS for 5 min, 0.5×SSC for 5 min and 1× millipore water for 10 sec and dried by centrifugation. Slides were scanned on a GMS 418 scanner to detect Cy3 and Cy5 fluorescence. Data analysis was carried out using ImaGene 5.0 and GeneSight 3.5 from BioDiscovery (www.biodiscovery.com). Two biological replicate experiments with four replicate hybridisations in each experiment were carried out for generation of data.
Pan E. coli K12 Arrays from MWG Biotech were used in this study (lot No.: 020206). The 4239 E. coli K12 specific oligonucleotide probes present on this glass-based DNA chip represent the complete Escherichia coli (K12) genome
Gene expression data was analyzed using the GeneSight 4.1.5 software from BioDiscovery. Data was prepared using local background correction, removal of flagged spots (contaminated background or signal), floor value raising data to a minimum value of 20, calculation of ratio, log(2) transformation of ratios, print-tip lowess normalization, and finally combination of replicate spot.

## CC[C@H](C)[C@H](NC(=O)CNC(=O)[C@H](CCCCN)NC(=O)[C@H](CCCNC(=N)N)NC(=O)[C@@H](NC(=O)[C@@H](NC(=O)[C@H](CCCNC(=N)N)NC(=O)[C@H](CCCNC(=N)N)NC(=O)[C@H](CC(C)C)NC(=O)[C@H](CC(N)=O)NC(=O)[C@@H](N)CCCCN)[C@@H](C)CC)[C@@H](C)CC)C(=O)N[C@@H](Cc1c[nH]cn1)C(=O)N[C@H](C(=O)N[C@H](C(=O)N[C@@H](CCCCN)C(=O)N[C@@H](CCCCN)C(=O)N[C@@H](Cc1ccc(O)cc1)C(=O)NCC(=O)O)[C@@H](C)CC)[C@@H](C)CC [Novispirin G10] (H-KNLRRIIRKGIHIIKKYG-OH; N-terminus assumed)
  ratio, gene abrB: −6.2
  ratio, gene ackA: −4.8
  ratio, gene adhP: 3.8
  ratio, gene aer: 14.3
  ratio, gene agaZ: −2.9
  ratio, gene ais: 14.1
  ratio, gene amyA: 5.8
  ratio, gene ansB: −3.8
  ratio, gene appB: 47.2
  ratio, gene appC: 3.5
  ratio, gene argA: 3.8
  ratio, gene aspA: −5.7
  ratio, gene asr: 19.2
  ratio, gene atpC: 3.1
  ratio, gene b0919: −2.8
  ratio, gene b1044: −3.0
  ratio, gene b1354: 3.0
  ratio, gene b1355: 5.0
  ratio, gene b1362: −14.9
  ratio, gene b1394: 2.8
  ratio, gene b1408: 3.3
  ratio, gene b1422: 3.0
  ratio, gene b1450: 4.8
  ratio, gene b1454: 9.7
  ratio, gene b1518: −3.8
  ratio, gene b1520: 3.2
  ratio, gene b1582: 6.8
  ratio, gene b1583: 4.3
  ratio, gene b1593: −5.0
  ratio, gene b1605: 3.0
  ratio, gene b1627: 3.5
  ratio, gene b1643: 4.5
  ratio, gene b1691: 3.7
  ratio, gene b1721: 98.3
  ratio, gene b1724: 9.1
  ratio, gene b1825: 8.7
  ratio, gene b1826: 4.6
  ratio, gene b1836: 6.9
  ratio, gene b1837: 5.3
  ratio, gene b1903: −3.1
  ratio, gene b1953: 3.8
  ratio, gene b1995: −3.1
  ratio, gene b2097: 8.1
  ratio, gene b2253: 8.4
  ratio, gene b2254: 5.5
  ratio, gene b2256: 4.0
  ratio, gene b2324: −4.0
  ratio, gene b2372: 3.8
  ratio, gene b2383: −4.1
  ratio, gene b2809: 3.4
  ratio, gene b2833: 5.1
  ratio, gene b2879: 2.9
  ratio, gene b3023: 3.9
  ratio, gene b3100: 9.9
  ratio, gene blc: 4.9
  ratio, gene bolA: 13.0
  ratio, gene btuE: 3.4
  ratio, gene btuR: −2.8
  ratio, gene celF: 4.1
  ratio, gene cheR: 6.8
  ratio, gene clpB: −3.6
  ratio, gene codA: 3.4
  ratio, gene crcA: 11.7
  ratio, gene csgF: 2.8
  ratio, gene dacC: 3.6
  ratio, gene dcuC: −6.2
  ratio, gene deoA: 3.8
  ratio, gene deoB: 3.0
  ratio, gene deoR: 2.9
  ratio, gene dgt: −2.7
  ratio, gene dksA: 4.1
  ratio, gene dnaJ: −3.0
  ratio, gene dnaK: −2.8
  ratio, gene dps: 4.4
  ratio, gene ebgR: −3.0
  ratio, gene ecpD: −3.7
  ratio, gene elaB: 9.7
  ratio, gene entF: −3.2
  ratio, gene evgA: −2.9
  ratio, gene fadL: −2.6
  ratio, gene fdnG: −3.3
  ratio, gene fecE: −2.7
  ratio, gene fecR: −3.6
  ratio, gene feoA: −6.1
  ratio, gene feoB: −5.2
  ratio, gene fepC: −2.7
  ratio, gene fhuE: −2.7
  ratio, gene fimC: 3.8
  ratio, gene flgG: −2.6
  ratio, gene flhB: −2.8
  ratio, gene flhD: −2.7
  ratio, gene fliD: 5.4
  ratio, gene fliJ: −3.1
  ratio, gene fliQ: 4.5
  ratio, gene folA: 3.2
  ratio, gene frdC: −5.0
  ratio, gene frwB-r: 4.0
  ratio, gene gabP: 8.2
  ratio, gene gabT: 6.5
  ratio, gene gapC_1: 3.3
  ratio, gene gatA: −3.0
  ratio, gene gatC: −2.7
  ratio, gene gatD: −3.2
  ratio, gene gatY: −6.2
  ratio, gene gatz: −6.8
  ratio, gene gcvH: −3.9
  ratio, gene gcvT: −4.8
  ratio, gene glk: 3.4
  ratio, gene glpA: −2.7
  ratio, gene glpA-r: −2.9
  ratio, gene glpB: −7.8
  ratio, gene glpC: −5.9
  ratio, gene glpT: −3.6
  ratio, gene gltB: −2.7
  ratio, gene gntT: −4.3
  ratio, gene grpE: −3.0
  ratio, gene hdeA: 7.7
  ratio, gene hdeB: 7.9
  ratio, gene hdeD: 4.3
  ratio, gene hemL: 8.3
  ratio, gene hisC: −4.5
  ratio, gene hscA: 3.2
  ratio, gene hslU: −3.2
  ratio, gene hslV: −3.0
  ratio, gene hybB: −2.9
  ratio, gene hyfD: −2.9
  ratio, gene hypB: −3.4
  ratio, gene hypC: −3.0
  ratio, gene hypE: −3.9
  ratio, gene ibpB: −6.5
  ratio, gene katE: 9.9
  ratio, gene lacY: −2.7
  ratio, gene lacZ: −9.1
  ratio, gene lon: −2.9
  ratio, gene malE: 4.6
  ratio, gene malM: 4.0
  ratio, gene mcrA: 3.9
  ratio, gene menA: −2.9
  ratio, gene menB: 2.9
  ratio, gene metE: 4.0
  ratio, gene mfd-r: −4.6
  ratio, gene mglC: −2.6
  ratio, gene mgtA: 7.5
  ratio, gene minD: −2.9
  ratio, gene mlc: −2.6
  ratio, gene mopA: −3.6
  ratio, gene mopB: −9.1
  ratio, gene mrr: 2.9
  ratio, gene nagA: 3.7
  ratio, gene nagB: 8.8
  ratio, gene napD: −3.5
  ratio, gene napF: −3.2
  ratio, gene napH: −7.9
  ratio, gene narU: 15.1
  ratio, gene narX: −4.0
  ratio, gene narY: 11.0
  ratio, gene narZ: 4.9
  ratio, gene ndh: 3.1
  ratio, gene nirB: −2.9
  ratio, gene nirC: −3.0
  ratio, gene nirD: −5.7
  ratio, gene nmpC: −6.6
  ratio, gene nrfA: −12.7
  ratio, gene ompF: −4.5
  ratio, gene ompX: 4.7
  ratio, gene osmC: 7.2
  ratio, gene osmE: 11.7
  ratio, gene osmY: 6.4
  ratio, gene otsA: 5.2
  ratio, gene otsB: 5.6
  ratio, gene pepB: 4.7
  ratio, gene pheP: 3.4
  ratio, gene phnE: 4.6
  ratio, gene phoP: 2.8
  ratio, gene phoQ: 3.7
  ratio, gene potG: 4.0
  ratio, gene poxB: 3.3
  ratio, gene pphA: 5.2
  ratio, gene proW: 7.9
  ratio, gene pspA: 6.7
  ratio, gene pspB: 6.9
  ratio, gene pspC: 15.8
  ratio, gene pspD: 13.5
  ratio, gene pspE: 9.4
  ratio, gene pssA: −2.8
  ratio, gene ptsP-r: −3.9
  ratio, gene pyrE: 4.2
  ratio, gene queA: −2.9
  ratio, gene rcsA: −2.8
  ratio, gene rfaJ: −2.6
  ratio, gene rfaP: −3.0
  ratio, gene rmf-r: 3.9
  ratio, gene rnt: 3.9
  ratio, gene rpiR: −3.1
  ratio, gene rpoB-r: 2.8
  ratio, gene rpsV: 5.2
  ratio, gene rstB: 3.6
  ratio, gene sfcA: 5.8
  ratio, gene sfmC: 11.4
  ratio, gene sfsA: 6.4
  ratio, gene slp: 3.6
  ratio, gene smp: −3.2
  ratio, gene sohA: 4.3
  ratio, gene speG: 3.8
  ratio, gene srlA: −2.7
  ratio, gene srlR: −2.6
  ratio, gene talA: 11.7
  ratio, gene tdcB: −2.7
  ratio, gene tdcC: −5.1
  ratio, gene thrB: 3.3
  ratio, gene tktB: 26.5
  ratio, gene tolC: 3.9
